From patent US11001562B2, “Near-infrared fluorescent nerve contrast agents and methods of use thereof” (Beth Israel Deaconess Medical Center, priority 2013, dated 2021)
Entries after “also recorded” stand apart in the source; their conditions may differ.

Experiments:
[1] = Optical property measurements (absorbance and fluorescence spectra); assay type: physicochemical; conditions: 100% FBS with 50 mM HEPES, pH 7.4, 37° C.
Experimental: Absorbance and fluorescence spectra were obtained at a concentration of […] in 100% FBS supplemented with 50 mM HEPES, pH 7.4. B) Optical properties of Oxazine 4 were measured in PBS (pH 7.4), FBS (pH 7.4), MeOH, and DMSO.
Oxazine derivatives were obtained from Fisher Scientific Inc. (Pittsburgh, Pa.) or Sigma-Aldrich (Saint Louis, Mo.), and BMB was synthesized as described previously (25). Optical measurements were performed at 37° C. in phosphate-buffered saline (PBS), pH 7.4 or 100% fetal bovine serum (FBS) buffered with 50 mM HEPES, pH 7.4. Absorbance and fluorescence emission spectra were measured using fiber optic HR2000 absorbance (200-1100 nm) and USB2000FL fluorescence (350-1000 nm) spectrometers (Ocean Optics, Dunedin, Fla.). NIR excitation was provided by a 532 nm green laser pointer (Opcom Inc., Xiamen, China) set to 5 mW and coupled through a […] core diameter, NA 0.22 fiber (Fiberguide Industries, Stirling, N.J.). In silico calculation of the partition coefficient (log D at pH 7.4) was calculated using Marvin and J Chem calculator plugins (ChemAxon, Budapest, Hungary). Chemical similarities were calculated by Instant J Chem 6.04 using “Chemical Hashed Fingerprint” with the Normalized Euclidean dissimilarity screening configuration (ChemAxon).
All optical measurements were performed at 37° C. in phosphate-buffered saline (PBS), pH 7.4, 100% fetal bovine serum (FBS) buffered with 50 mM HEPES, pH 7.4, methanol (MeOH), or dimethyl sulfoxide (DMSO). Absorbance and fluorescence emission spectra of the series of NIR fluorophores were measured using fiber optic HR2000 absorbance (200-1100 nm) and USB2000FL fluorescence (350-1000 nm) spectrometers (Ocean Optics, Dunedin, Fla.). Excitation light was provided by a 532 nm green laser pointer (Opcom Inc., Xiamen, China) set to 5 mW and coupled through a 300 μm core diameter, NA 0.22 fiber (Fiberguide Industries, Stirling, N.J.). In silico calculation of the partition coefficient (log D at pH 7.4) was calculated using Marvin and J Chem calculator plugins (ChemAxon, Budapest, Hungary).

[2] = system: pig sciatic nerve tissue cross sections; experiment: Ex vivo nerve-specific fluorophore screening on nerve tissue sections; conditions: for nerve-specific fluorescence signal in cross-sectioned nerve: 20 min incubation; for adipose uptake: both ex vivo and in vivo
Experimental: Phase contrast image (top) and fluorescence image (bottom) of nerve tissue sections incubated with 100 μM of test fluorophores are shown. Nerve-specific fluorescence intensity was determined using staining of pig sciatic nerve cut in cross section. Nerve tissue sections were incubated in 30% FBS solutions without (negative control, autofluorescence only) and with each fluorophore. As a positive control, previously reported nerve-specific BMB was used. Shown are phase contrast image (top) and fluorescence image (bottom) of nerve tissue sections incubated with 100 μM of each fluorophore. The control autofluorescence images were taken with equivalent exposure time and normalization. Arrowheads indicate fluorescence signals in nerve bundles. Ad=adipose tissue. Scale bars=200 μm. The SBR of each nerve relative to the neighboring adipose tissue was quantified and labeled as—, SBR<1; +, SBR=1−2; and ++, SBR >2.
Sciatic nerves from female Yorkshire pigs were harvested, fixed in 2% paraformaldehyde (PFA), and flash frozen in optimal cutting temperature (OCT) compound using liquid nitrogen. Nerve tissues were cut in cross section using a cryostat at […] thickness onto positively charge glass slides. Tissue sections were washed once with phosphate buffered saline (PBS) for 2 min to remove residual OCT. The tissue was then fixed to the slide with 2% PFA for 15 min, followed by washing with PBS (3×5 min). A formulation was previously developed for intravenous (IV) administration and was used in the current study to incubate the fluorophores with the nerve tissue (25). All fluorophores were mixed from the 100 mM stock solution into the IV formulation at 100 µM and incubated with the washed nerve tissue sections at room temperature for 20 min. Additional IV formulation not containing fluorophore was mixed and used to wash each nerve section twice (5 min per wash) following incubation with the formulated fluorophore. The nerve section was then washed an additional 2 times with PBS (5 min per each), after which coverslips were mounted using Fluoromount-G (Southern Biotech, Birmingham, Ala.).
NIR fluorescence microscopy for ex vivo nerve tissue slides was performed on a Nikon Eclipse TE300 microscope system as previously described (12, 19, 25). The microscope was equipped with a 100 W mercury light source, NIR-compatible optics, and a NIR-compatible 10× Plan Fluor objective lens and a 100× Plan Apo oil immersion objective lens (Nikon, Melville, N.Y.). Images were acquired on an Orca-AG (Hamamatsu, Bridgewater, N.J.). Image acquisition and analysis was performed using IPLab software (Scanalytics, Fairfax, Va.). A custom filter set (Chroma Technology Corporation, Brattleboro, Vt.) composed of a 650±22 nm excitation filter, a 675 nm dichroic mirror, and an 710±25 nm emission filter were used to detect Oxazine derivatives and Rhodamine 800 signals in the nerve tissue slides. For BMB, a mercury light source was passed through a 360±25 nm BP excitation filter, a 400 nm LP beam splitter, and a 550±50 nm emission filter.

[3] = system: rat brachial plexus and sciatic nerves; experiment: In vivo nerve-specificity screening with FLARE imaging; conditions: for nerve-specific fluorescence signal in vivo: SD rats, 2 mg/kg (1 μmol) iv, 4 h after injection, brachial plexus and sciatic nerve
Text: The dual-NIR channel FLARE^a imaging system has been described in detail previously (26-28). In this study, a 670 nm excitation was used at a fluence rate of 4 mW/cm^2, with white light (400-650 nm) at 40,000 1×. Color and NIR fluorescence images were acquired simultaneously with custom software at rates up to 15 Hz over a 15 cm diameter field of view. A pseudo-colored lime green was used for NIR fluorescence in the color-NIR merged images. The imaging system was positioned at a distance of 18 inches from the surgical field.
Initial in vivo screening occurred in rats based on our previous study of BMB (Supplementary Methods) (25). For kinetic and dose-response studies, 50-400 nmol (0.8-6.3 mg/kg) of Oxazine 4 was injected intravenously into mice and measurements taken over 24 h. Control images were acquired prior to injecting NIR fluorophores. The fluorescence signal in nervous tissues and signal-to-background ratio (SBR) compared to neighboring muscle (Mu) were obtained over the period of imaging. For the large animal study, the optimal dose found in mice (200-400 nmol per mouse) was used in pigs by scaling to body surface area (29, 30).
Sprague-Dawley (SD) male rats weighing 250-300 g were purchased from Charles River Laboratories (Wilmington, Mass.). BMB, Oxazine 1, Oxazine 4, Oxazine 170, Oxazine 750, and Rhodamine 800 were initially screened to investigate nerve specificity in rats. For the initial screening, we administered a relatively high dose (2 mg/kg; 1 μmol) of each fluorophore intravenously. 4 h after injection, brachial plexus (BP) and sciatic nerve (SN) were imaged using the intraoperative FLARE^a system for in vivo nerve-specific fluorophores screening.

[4] = 100 μM fluorophore, pig sciatic nerve sections
[5] = comparison of structures in discussion

Compound	Abs (peak absorbance) [1] [nm]	Em (peak emission) [1] [nm]	λ (extinction coefficient) [1]	nerve-specific fluorescence signal in cross-sectioned nerve [2, 4]	uptake in / targeting of nerve ([3]; summary statement related to log D)	adipose uptake [2]	nerve-specific fluorescence signal in vivo [3]	adipose fluorescence signal [2, 4]	adipose signal (discussion summary) [3, 5]	nerve signal (discussion summary) [3, 5]	SBR of nerve relative to neighboring adipose tissue [2, 4]
N#CC1=c2cc3c4c(c2Oc2c1cc1c5c2CCCN5CCC1)CCC[N+]=4CCC3 [Rhodamine 800]	697	710	68,000 M^−1cm^−1	strong fluorescence signal throughout the cross-sectioned nerve	low and low targeting affinity to the nerve	–	–	–	–	–	–
COc1cc(/C=C/c2ccc(N)cc2)ccc1/C=C/c1ccc(N)cc1 [BMB, reference compound]	397	498	52,800 M^−1cm^−1	relatively high fluorescence signal in the nerve	–	–	nerve highlighting fluorophores	even higher than the target signal	–	–	< 1

The next lines start with results.

Abs (peak absorbance) [1] [nm]	Em (peak emission) [1] [nm]	λ (extinction coefficient) [1]	Compound	nerve-specific fluorescence signal in cross-sectioned nerve [2, 4]	uptake in / targeting of nerve ([3]; summary statement related to log D)	adipose uptake [2]	nerve-specific fluorescence signal in vivo [3]	adipose fluorescence signal [2, 4]	adipose signal (discussion summary) [3, 5]	nerve signal (discussion summary) [3, 5]	SBR of nerve relative to neighboring adipose tissue [2, 4]
625	650	69,000 M^−1cm^−1	CC/N=c1/cc2oc3cc(NCC)c(C)cc3nc-2c2ccccc12 [Oxazine 170]	weak nerve-specific fluorescence signal	–	strong adipose uptake; also recorded: high accumulation in adipose tissue	nerve highlighting fluorophores	–	–	–	–
655	670	196,000 M^−1cm^−1	CCN(CC)c1ccc2nc3ccc(=[N+](CC)CC)cc-3oc2c1 [Oxazine 1]	did not show any nerve-specific fluorescence signal	–	–	weak signal in the vicinity of nerve	adipose-specific fluorescence signal only	high adipose	low nerve signal	–
676	684	44,000 M^−1cm^−1	CC/N=c1/cc2oc3c4c5c(cc3nc-2c2ccccc12)CCCN5CCC4 [Oxazine 750]	strong fluorescence signal throughout the cross-sectioned nerve	–	strong adipose uptake	–	–	–	–	–
